In patent publication US11548870B2, “Compounds useful as inhibitors of helios protein” (Bristol-Myers Squibb Company, priority 2019, dated 2023) one finds DC50 and Dmax data, which are given here for 23 compounds.

For assay [1], the target named is T1, Ikaros (Homo sapiens, UniProt Q13422).
T1 construct: fluorescently labelled antibodies against Helios and Ikaros; endogenous in cells; host or cells: Jurkat cells
The assay is described as follows: Helios Cellular Degradation Assay, Ikaros readout (flow cytometry, Ikaros-Alexa488 antibody staining, 72 h). It is filed as cell-based. To be noted: Jurkat cells, 72 h incubation, flow cytometry; for Dmax: Jurkat, read-out: Ikaros Dmax. The method in brief: (§1)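 Flow cytometry of fixed, permeabilized Jurkat cells stained with anti-Helios-PE and anti-Ikaros-Alexa488 (1 h, room temperature) measured remaining protein. Treatment lasted 72 h at 37 °C, 5% CO2, at 80,000 cells/well in RPMI with 10% FBS.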

Assay [2] has as its target T2, Helios (Homo sapiens, UniProt Q96SW2+Q9UKS7).
T2 construct: fluorescently labelled antibodies against Helios and Ikaros; endogenous in cells; host or cells: Jurkat cells
Description: Helios Cellular Degradation Assay (flow cytometry, Helios-PE antibody staining, 72 h). The assay is classed as cell-based. The note with it: Jurkat cells, 72 h incubation, flow cytometry; for Dmax: Jurkat, read-out: Helios Dmax. The method in brief:
as §1

T1 sequence (Q96SW2 whole entry partner): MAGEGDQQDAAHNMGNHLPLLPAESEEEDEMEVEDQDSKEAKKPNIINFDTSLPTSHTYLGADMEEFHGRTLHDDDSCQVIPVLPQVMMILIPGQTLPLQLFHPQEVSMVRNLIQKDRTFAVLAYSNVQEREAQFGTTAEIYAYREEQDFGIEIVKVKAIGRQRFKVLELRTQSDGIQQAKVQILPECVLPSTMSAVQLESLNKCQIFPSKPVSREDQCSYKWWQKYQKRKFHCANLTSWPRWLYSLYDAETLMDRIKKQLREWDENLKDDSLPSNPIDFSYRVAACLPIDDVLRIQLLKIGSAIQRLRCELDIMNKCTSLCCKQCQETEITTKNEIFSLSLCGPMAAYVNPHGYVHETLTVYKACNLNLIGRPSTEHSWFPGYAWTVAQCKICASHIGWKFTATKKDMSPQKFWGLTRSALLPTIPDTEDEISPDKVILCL
T1 sequence (Q16531 whole entry partner): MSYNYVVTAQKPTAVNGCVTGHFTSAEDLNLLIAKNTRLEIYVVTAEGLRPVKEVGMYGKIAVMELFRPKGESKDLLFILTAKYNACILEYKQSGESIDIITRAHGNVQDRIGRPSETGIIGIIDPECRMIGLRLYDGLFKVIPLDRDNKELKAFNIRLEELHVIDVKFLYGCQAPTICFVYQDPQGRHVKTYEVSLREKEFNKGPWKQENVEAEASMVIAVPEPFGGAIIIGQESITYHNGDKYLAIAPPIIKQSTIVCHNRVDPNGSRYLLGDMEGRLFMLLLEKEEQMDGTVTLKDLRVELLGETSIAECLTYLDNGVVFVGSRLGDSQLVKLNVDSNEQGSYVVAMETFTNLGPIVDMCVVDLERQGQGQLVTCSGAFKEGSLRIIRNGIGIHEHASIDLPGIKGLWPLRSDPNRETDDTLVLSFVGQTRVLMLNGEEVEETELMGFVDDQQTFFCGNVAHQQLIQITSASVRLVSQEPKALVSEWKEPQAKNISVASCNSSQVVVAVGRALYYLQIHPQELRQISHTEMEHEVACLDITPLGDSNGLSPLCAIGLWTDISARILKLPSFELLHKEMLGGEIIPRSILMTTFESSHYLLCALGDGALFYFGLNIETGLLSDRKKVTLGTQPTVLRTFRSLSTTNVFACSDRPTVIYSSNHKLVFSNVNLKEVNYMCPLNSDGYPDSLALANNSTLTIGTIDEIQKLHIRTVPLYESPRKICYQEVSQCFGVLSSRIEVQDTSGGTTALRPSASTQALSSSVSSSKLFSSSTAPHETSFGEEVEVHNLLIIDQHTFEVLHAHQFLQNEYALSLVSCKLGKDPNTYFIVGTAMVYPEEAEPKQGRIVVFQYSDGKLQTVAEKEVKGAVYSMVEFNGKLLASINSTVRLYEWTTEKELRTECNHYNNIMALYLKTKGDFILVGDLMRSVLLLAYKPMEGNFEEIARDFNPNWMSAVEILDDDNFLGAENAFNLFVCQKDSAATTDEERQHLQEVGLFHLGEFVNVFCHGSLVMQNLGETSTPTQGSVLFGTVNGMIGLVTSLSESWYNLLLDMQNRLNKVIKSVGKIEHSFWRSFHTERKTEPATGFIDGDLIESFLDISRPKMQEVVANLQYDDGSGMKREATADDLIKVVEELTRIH
T1 sequence (Q13422 whole entry): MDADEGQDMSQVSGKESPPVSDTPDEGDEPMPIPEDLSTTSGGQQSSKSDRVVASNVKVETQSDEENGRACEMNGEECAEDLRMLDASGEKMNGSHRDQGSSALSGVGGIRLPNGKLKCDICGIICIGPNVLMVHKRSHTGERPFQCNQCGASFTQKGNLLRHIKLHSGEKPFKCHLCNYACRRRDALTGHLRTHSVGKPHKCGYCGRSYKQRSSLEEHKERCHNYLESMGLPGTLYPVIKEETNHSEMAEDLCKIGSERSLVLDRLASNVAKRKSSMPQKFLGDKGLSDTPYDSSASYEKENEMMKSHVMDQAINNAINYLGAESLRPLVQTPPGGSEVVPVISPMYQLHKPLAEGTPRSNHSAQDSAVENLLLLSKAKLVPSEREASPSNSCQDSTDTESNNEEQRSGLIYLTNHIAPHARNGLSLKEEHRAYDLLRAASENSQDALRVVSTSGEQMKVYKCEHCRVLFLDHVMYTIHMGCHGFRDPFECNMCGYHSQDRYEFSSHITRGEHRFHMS
T2 sequence (Q9UKS7 whole entry): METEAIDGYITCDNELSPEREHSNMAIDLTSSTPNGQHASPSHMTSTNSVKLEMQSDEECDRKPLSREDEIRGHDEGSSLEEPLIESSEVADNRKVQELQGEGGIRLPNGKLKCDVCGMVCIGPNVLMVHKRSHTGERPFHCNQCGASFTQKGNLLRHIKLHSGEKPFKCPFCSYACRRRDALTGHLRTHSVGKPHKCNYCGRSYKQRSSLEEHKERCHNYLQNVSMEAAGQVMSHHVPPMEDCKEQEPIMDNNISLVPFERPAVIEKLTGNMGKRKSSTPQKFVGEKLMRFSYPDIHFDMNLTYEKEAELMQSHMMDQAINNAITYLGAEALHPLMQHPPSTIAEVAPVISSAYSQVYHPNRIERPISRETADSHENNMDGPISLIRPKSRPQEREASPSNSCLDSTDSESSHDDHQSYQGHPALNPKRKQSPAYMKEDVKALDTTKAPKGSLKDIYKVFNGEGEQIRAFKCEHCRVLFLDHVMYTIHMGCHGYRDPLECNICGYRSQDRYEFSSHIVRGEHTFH
T2 sequence (Q96SW2 whole entry): as the sequence (Q96SW2 whole entry partner) above
T2 sequence (Q16531 whole entry partner): as the sequence (Q16531 whole entry partner) above

Take `O=C1CCC(N2Cc3cc(-c4cc(CN5CC[C@H](c6ccccc6)C5)ccn4)ccc3C2=O)C(=O)N1` (stereo partly drawn) [Example 138, 3-(1-oxo-5-(4-(((R)-3-phenylpyrrolidin-1-yl)methyl)pyridin-2-yl)isoindolin-2-yl)piperidine-2,6-dione]: in assay [1], the DC50 was greater than 10000 nM and the Dmax came out at 18%. In addition, in assay [2], half-maximal degradation (DC50) was put at 37 nM and the Dmax stood at 82%.

`CN(C)C(=O)C1CN(Cc2ccnc(-c3ccc4c(c3)CN(C3CCC(=O)NC3=O)C4=O)c2)C1` (centres unmarked) [Example 202, 1-((2-(2-(2,6-dioxopiperidin-3-yl)-1-oxoisoindolin-5-yl)pyridin-4-yl)methyl)-N,N-dimethylazetidine-3-carboxamide]: in assay [1], the half-maximal degradation concentration (DC50) was greater than 10000 nM and the Dmax was 22%. Moreover, in assay [2], half-maximal degradation (DC50) was put at 190 nM and the Dmax was found to be 69%.

For `O=C1CCC(N2Cc3cc(-c4cc(CNCCc5ccccc5Cl)ccn4)ccc3C2=O)C(=O)N1` (centres unmarked) [Example 93, 3-(5-(4-(((2-chlorophenethyl)amino)methyl)pyridin-2-yl)-1-oxoisoindolin-2-yl)piperidine-2,6-dione], in assay [1], the DC50 was greater than 10000 nM and the Dmax was found to be 23%. Further, in assay [2], it took 9 nM to reach half-maximal degradation (DC50) and the Dmax came out at 103%.

On to `CN(Cc1ccc(C#N)cc1)Cc1ccnc(-c2ccc3c(c2)CN(C2CCC(=O)NC2=O)C3=O)c1` (centres unmarked) [Example 150, 4-((((2-(2-(2,6-dioxopiperidin-3-yl)-1-oxoisoindolin-5-yl)pyridin-4-yl)methyl)(methyl)amino)methyl)benzonitrile], for which, in assay [1], the DC50 is greater than 10000 nM and the Dmax was 17%. Moreover, in assay [2], the DC50 is greater than 10000 nM and the Dmax was determined as 45%.

In the case of `CN(Cc1ccccc1)Cc1ccnc(-c2ccc3c(c2)CN(C2CCC(=O)NC2=O)C3=O)c1` (centres unmarked) [Example 164, 3-[5-(4-{[Benzyl(methyl)amino]methyl}pyridin-2-yl)-1-oxo-2,3-dihydro-1H-isoindol-2-yl]piperidine-2,6-dione], the half-maximal degradation concentration (DC50) in assay [1] is greater than 10000 nM; in assay [2], 62 nM. Moreover, the Dmax in assay [1] is 10%; in assay [2], 77%.

In the case of `CCOC1CN(Cc2ccnc(-c3ccc4c(c3)CN(C3CCC(=O)NC3=O)C4=O)c2)C1` (centres unmarked) [Example 198, 3-(5-(4-((3-ethoxyazetidin-1-yl)methyl)pyridin-2-yl)-1-oxoisoindolin-2-yl) piperidine-2,6-dione], in assay [1], the DC50 was greater than 10000 nM and the Dmax came out at 18%. In addition, in assay [2], it took 42 nM to reach half-maximal degradation (DC50) and the Dmax is 75%.

Turning to `O=C1CCC(N2Cc3cc(-c4cc(CNC5CCN(Cc6ccccc6)C5)ccn4)ccc3C2=O)C(=O)N1` (centres unmarked) [Example 104, 3-(5-(4-(((1-benzylpyrrolidin-3-yl)amino)methyl)pyridin-2-yl)-1-oxoisoindolin-2-yl) piperidine-2,6-dione], in assay [1], the half-maximal degradation concentration (DC50) was greater than 10000 nM and the Dmax turned out to be 1%. Also, in assay [2], the DC50 is greater than 10000 nM and the Dmax stood at 44%.

As to `CN(CCc1ccccc1)Cc1ccnc(-c2ccc3c(c2)CN(C2CCC(=O)NC2=O)C3=O)c1` (centres unmarked) [Example 171, 3-(5-(4-((methyl(phenethyl)amino)methyl)pyridin-2-yl)-1-oxoisoindolin-2-yl)piperidine-2,6-dione], in assay [1], the DC50 was greater than 10000 nM and the Dmax is 4%. Moreover, in assay [2], the DC50 was found to be 317 nM and the Dmax is 80%.

For the compound `CN(Cc1ccncc1)Cc1ccnc(-c2ccc3c(c2)CN(C2CCC(=O)NC2=O)C3=O)c1` (centres unmarked) [Example 160, 3-(5-(4-((methyl(pyridin-4-ylmethyl)amino)methyl)pyridin-2-yl)-1-oxoisoindolin-2-yl) piperidine-2,6-dione], in assay [1], the DC50 is greater than 10000 nM and the Dmax was 30%. Moreover, in assay [2], it took 359 nM to reach half-maximal degradation (DC50) and the Dmax was 70%.

Regarding `O=C1CCC(N2Cc3cc(-c4cc(CN(Cc5ccccc5)Cc5ccccc5)ccn4)ccc3C2=O)C(=O)N1` (centres unmarked) [Example 163, 3-(5-{4-[(Dibenzylamino)methyl]pyridin-2-yl}-1-oxo-2,3-dihydro-1H-isoindol-2-yl)piperidine-2,6-dione], in assay [1], the DC50 was greater than 10000 nM and the Dmax is 31%. Also, in assay [2], it took 1020 nM to reach half-maximal degradation (DC50) and the Dmax came to 56%.

Turning to `NC(=O)CCNCc1ccnc(-c2ccc3c(c2)CN(C2CCC(=O)NC2=O)C3=O)c1` (centres unmarked) [Example 105, 3-(((2-(2-(2,6-dioxopiperidin-3-yl)-1-oxoisoindolin-5-yl)pyridin-4-yl)methyl)amino)propanamide], in assay [1], the DC50 is greater than 10000 nM and the Dmax was determined as 5%. Besides, in assay [2], the DC50 is 264 nM and the Dmax worked out at 79%.

As for `O=C1CCC(N2Cc3cc(-c4cc(CN5CCC6CCCC65)ccn4)ccc3C2=O)C(=O)N1` (centres unmarked) [Example 60, 3-(5-(4-((hexahydrocyclopenta[b]pyrrol-1(2H)-yl)methyl)pyridin-2-yl)-1-oxoisoindolin-2-yl) piperidine-2,6-dione], the DC50 in assay [1] was greater than 10000 nM; in assay [2] it was 548 nM. For the same compound, the Dmax was determined as 19% in assay [1] and 63% in assay [2].

Take `O=C1CCC(N2Cc3cc(-c4cc(CN5CCC(N6CCCCC6)CC5)ccn4)ccc3C2=O)C(=O)N1` (centres unmarked) [Example 17, 3-(5-(4-([1,4′-bipiperidin]-1′-ylmethyl)pyridin-2-yl)-1-oxoisoindolin-2-yl)piperidine-2,6-dione]: in assay [1], the DC50 was greater than 10000 nM and the Dmax was 11%. Moreover, in assay [2], the half-maximal degradation concentration (DC50) was greater than 10000 nM and the Dmax is 16%.

Turning to `O=C1CCC(N2Cc3cc(-c4cc(CNCC5CCCCC5)ccn4)ccc3C2=O)C(=O)N1` (centres unmarked) [Example 54, 3-(5-(4-(((cyclohexylmethyl)amino)methyl)pyridin-2-yl)-1-oxoisoindolin-2-yl)piperidine-2,6-dione], in assay [1], the DC50 is greater than 10000 nM and the Dmax is 12%. In addition, in assay [2], the DC50 turned out to be 16 nM and the Dmax was found to be 83%.

Take `O=C1CCC(N2Cc3c(ccc(-c4cc(CN5CC(c6ccccc6)C5)ccn4)c3F)C2=O)C(=O)N1` (centres unmarked) [Example 208, 3-(4-Fluoro-1-oxo-5-(4-((3-phenylazetidin-1-yl)methyl)pyridin-2-yl)isoindolin-2-yl)piperidine-2,6-dione]: in assay [1], the DC50 was greater than 10000 nM and the Dmax was 13%. Further, in assay [2], the 50% degradation concentration (DC50) was found to be 3 nM and the Dmax is 88%.

On to `Cc1ccc(CN(C)Cc2ccnc(-c3ccc4c(c3)CN(C3CCC(=O)NC3=O)C4=O)c2)cc1` (centres unmarked) [Example 161, 3-(5-(4-((methyl(4-methylbenzyl)amino)methyl)pyridin-2-yl)-1-oxoisoindolin-2-yl)piperidine-2,6-dione], for which, in assay [1], the DC50 was greater than 10000 nM and the Dmax is 17%. Besides, in assay [2], the half-maximal degradation concentration (DC50) is 67 nM and the Dmax came to 83%.

Consider `CN(Cc1ccnc(-c2ccc3c(c2)CN(C2CCC(=O)NC2=O)C3=O)c1)Cc1cccc2[nH]ncc12` (centres unmarked) [Example 169, 3-(5-(4-((((1H-indazol-4-yl)methyl)(methyl)amino)methyl)pyridin-2-yl)-1-oxoisoindolin-2-yl)piperidine-2,6-dione], for which the DC50 was greater than 10000 nM in assay [1] and 195 nM in assay [2]. Besides, the Dmax in assay [1] was 16%; in assay [2], 79%.

With `COCCNCc1ccnc(-c2ccc3c(c2)CN(C2CCC(=O)NC2=O)C3=O)c1` (centres unmarked) [Example 68, 3-(5-(4-(((2-methoxyethyl)amino)methyl)pyridin-2-yl)-1-oxoisoindolin-2-yl)piperidine-2,6-dione], in assay [1], the DC50 is greater than 10000 nM and the Dmax stood at 15%. In addition, in assay [2], the DC50 was 192 nM and the Dmax is 71%.

Take `Cc1ccc(S(=O)(=O)C2CCN(Cc3ccnc(-c4ccc5c(c4)CN(C4CCC(=O)NC4=O)C5=O)c3)CC2)cc1` (centres unmarked) [Example 132, 3-(1-oxo-5-(4-((4-tosylpiperidin-1-yl)methyl)pyridin-2-yl)isoindolin-2-yl)piperidine-2,6-dione]: in assay [1], the DC50 was greater than 10000 nM and the Dmax is 13%. In assay [2], the DC50 is greater than 10000 nM and the Dmax worked out at 28%.

As for `CN(Cc1ccc(S(=O)(=O)N(C)C)cc1)Cc1ccnc(-c2ccc3c(c2)CN(C2CCC(=O)NC2=O)C3=O)c1` (centres unmarked) [Example 146, 4-{[({2-[2-(2,6-Dioxopiperidin-3-yl)-1-oxo-2,3-dihydro-1H-isoindol-5-yl]pyridin-4-yl}methyl)(methyl)amino]methyl}-N,N-dimethylbenzene-1-sulfonamide], in assay [1], the DC50 is greater than 10000 nM and the Dmax came out at 5%. Also, in assay [2], the DC50 is greater than 10000 nM and the Dmax is 3%.

Take `CC1CCN(Cc2ccnc(-c3ccc4c(c3)CN(C3CCC(=O)NC3=O)C4=O)c2)CC1` (centres unmarked) [Example 14, 3-(5-(4-((4-methylpiperidin-1-yl)methyl)pyridin-2-yl)-1-oxoisoindolin-2-yl)piperidine-2,6-dione]: in assay [1], the DC50 was greater than 10000 nM and the Dmax was 16%. Besides, in assay [2], the half-maximal degradation concentration (DC50) is 36 nM and the Dmax is 80%.

Take `CN(Cc1ccnc(-c2ccc3c(c2)CN(C2CCC(=O)NC2=O)C3=O)c1)CC1CC1` (centres unmarked) [Example 173, 3-(5-(4-(((cyclopropylmethyl)(methyl)amino)methyl)pyridin-2-yl)-1-oxoisoindolin-2-yl) piperidine-2,6-dione]: the values for the DC50 in assay [1] and in assay [2] were greater than 10000 nM and 73 nM, respectively. The results for the Dmax in assay [1] and in assay [2] were 0% and 86%, respectively.

Consider `O=C1CCC(N2Cc3cc(-c4cc(CNC5CCCC5)ccn4)ccc3C2=O)C(=O)N1` (centres unmarked) [Example 86, 3-(5-(4-((cyclopentylamino)methyl)pyridin-2-yl)-1-oxoisoindolin-2-yl)piperidine-2,6-dione], for which, in assay [1], the half-maximal degradation concentration (DC50) is greater than 10000 nM and the Dmax came out at 20%. Also, in assay [2], the DC50 was 19 nM and the Dmax came out at 91%.
